Literature values in patent publication US20050272698A1, “Liquid stable composition of oxazaphosphorine with mesna” (priority 2002, published 2005).

Structure (SMILES)	solubility in water
O=P1(NCCCl)OCCCN1CCCl (centres unmarked) [Ifosfamide, 3-(2-chloroethyl)-2-[(2-chloroethyl)amino]tetrahydro-2H-1,3,2-oxazaphosphorin-2-oxide]	freely soluble in water
O=S(=O)([O-])CCS.[Na+] [Mesna, sodium-2-mercaptoethanesulphonate]	highly water soluble
